Results: patent US20240368120A1 (Terns Pharmaceuticals, Inc., priority 2023, published 2024)

Experiments:
[1] = Rat pharmacokinetics, oral dosing; type: in vivo, Sprague-Dawley rats; conditions: male, Sprague-Dawley, oral dosing at 3 mg/kg, plasma; for half-life: read-out: Rat T1/2
Method: Intravenous dosing: Compounds were formulated at 1.0 mg/mL in a solution comprising 5% polyethylene glycol 400 and 95% (12% (w/v) sulfobutyl-β-cyclodextrin in water) (v/v). Formulated compounds were sterile filtered through a 0.22 micron filter before dosing. Compounds were administered to male, 7-11-week-old Sprague-Dawley rats by jugular vein cannula infusion over 30 minutes at a dose of 1 mg/kg. Oral dosing: Compounds were formulated at 1.0 mg/mL in a solution comprising 5% polyethylene glycol 400 and 95% (12% (w/v) sulfobutyl-β-cyclodextrin in water) (v/v). Formulated compounds were administered to male, 7-11 week old Sprague-Dawley rats by oral gavage at a dose of 10 mg/kg or 3 mg/kg.
Sample collection: Blood collections of about 0.2 mL per time point were performed from jugular vein or other suitable site of each animal, into pre-chilled commercial EDTA-K2 tubes and placed on wet ice until centrifugation. Blood samples were processed for plasma by centrifugation at approximately 4° C., 3,200 g for 10 min. Plasma was collected and transferred into pre-labeled 96 well plate or polypropylene tubes, quick frozen over dry ice and kept at −60° C. or lower until
Data analysis: Plasma concentration versus time data was plotted in graph and analyzed by non-compartmental approaches using the Phoenix WinNonlin 6.3 software program. Related PK parameters were calculated according to dosing route, e.g., CL, Vdss and C0 for intravenous administration, Cmax, Tmax or % F for extravascular administration, and T1/2, AUC(0-t), AUC(0-inf), MRT(0-t), MRT(0-inf) for all routes.

[2] = molecular target: T1, human GLP-1R receptor (Homo sapiens, UniProt P43220); assay: GLP-1R low expression cell assay (cAMP TR-FRET, CHO-K1_hGLP-1Rlow_clone10 cells); type: cell-based; conditions: for EC50: cAMP TR-FRET, 30 min at 25° C.; for Emax: maximum activation relative to control GLP-1 peptide agonist
T1 construct: expressed in transfected cells
T1 sequence (P43220 24-463): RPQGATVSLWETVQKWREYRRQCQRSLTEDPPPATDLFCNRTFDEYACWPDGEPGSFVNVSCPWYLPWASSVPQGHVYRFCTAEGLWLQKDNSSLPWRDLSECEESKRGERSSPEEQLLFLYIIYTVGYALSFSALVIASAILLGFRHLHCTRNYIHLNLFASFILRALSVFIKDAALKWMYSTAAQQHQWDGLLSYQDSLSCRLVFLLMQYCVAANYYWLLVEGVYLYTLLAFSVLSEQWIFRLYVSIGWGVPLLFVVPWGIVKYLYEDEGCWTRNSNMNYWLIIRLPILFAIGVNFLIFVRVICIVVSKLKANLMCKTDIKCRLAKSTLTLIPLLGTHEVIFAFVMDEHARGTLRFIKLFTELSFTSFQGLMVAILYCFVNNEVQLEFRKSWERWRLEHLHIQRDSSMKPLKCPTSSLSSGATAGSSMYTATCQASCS
Method in brief: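 Readout is cAMP TR-FRET after 30 min compound stimulation at 25 °C of a low-GLP-1R-expressing CHO-K1 clone (1,000 cells/well), with 10-point 3-fold serial dilutions. Percent activation versus a control GLP-1 peptide, from duplicates, was Hill-fitted to give EC50.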

SMILES	AUC [1] [ng·h/mL]	Cmax [1] [ng/mL]	half-life [1] [h]	bioavailability [1] [%]	EC50 [2] [nM]	Emax [2] [%]
C[C@]1(c2ccc(Cl)cn2)Oc2cccc(C3CCN(Cc4nc5c(O)cc(C(=O)O)cc5n4Cc4cncs4)CC3)c2O1 [Compound 90, (S)-2-((4-(2-(5-chloropyridin-2-yl)-2-methylbenzo[d][1,3]dioxol-4-yl)piperidin-1-yl)methyl)-4-hydroxy-1-(thiazol-5-ylmethyl)-1H-benzo[d]imidazole-6-carboxylic acid]	< 500	< 500	1.5 to 2.5	< 25	< 10	> 85
COc1cc(C(=O)O)cc2c1nc(Cc1cc(F)c(-c3cccc(OCc4ccc(C#N)cc4F)n3)cc1F)n2C [Compound 304, 2-(4-(6-((4-Cyano-2-fluorobenzyl)oxy)pyridin-2-yl)-2,5-difluorobenzyl)-4-methoxy-1-methyl-1H-benzo[d]imidazole-6-carboxylic acid]	2500 to 10000	2000 to 5000	1.5 to 2.5	50 to 85	< 10	> 85
COCCOc1cc(C(=O)O)cc2c1nc(CN1CCC(c3cccc4c3O[C@@](C)(c3ccc(Cl)cn3)O4)CC1)n2C [Compound 309, (S)-2-((4-(2-(5-Chloropyridin-2-yl)-2-methylbenzo[d][1,3]dioxol-4-yl)piperidin-1-yl)methyl)-4-(2-methoxyethoxy)-1-methyl-1H-benzo[d]imidazole-6-carboxylic acid]	< 500	< 500	≥ 2.5	< 25	–	> 85
Cn1c(CN2CCC(c3cccc4c3OC[C@@H](c3ccc(C#N)cc3F)O4)CC2)nc2c(OC(F)F)cc(C(=O)O)cc21 [Compound 300, (R)-2-((4-(2-(4-Cyano-2-fluorophenyl)-2,3-dihydrobenzo[b][1,4]dioxin-5-yl)piperidin-1-yl)methyl)-4-(difluoromethoxy)-1-methyl-1H-benzo[d]imidazole-6-carboxylic acid]	–	2000 to 5000	≥ 2.5	> 85	100 to 1000	> 85
COc1cc(C(=O)O)cc2c1nc(CN1CCC(c3cccc(OCc4ccc(Cl)c5c4OCC5)n3)CC1)n2C [Compound 297, 2-((4-(6-((4-Chloro-2,3-dihydrobenzofuran-7-yl)methoxy)pyridin-2-yl)piperidin-1-yl)methyl)-4-methoxy-1-methyl-1H-benzo[d]imidazole-6-carboxylic acid]	–	2000 to 5000	1.5 to 2.5	25 to 50	< 10	> 85
[2H]C([2H])([2H])Oc1cc(C(=O)O)cc2c1nc(CN1CCC(c3cccc(OCc4ccc(Cl)cc4F)n3)CC1)n2C [Compound 207, 2-((4-(6-((4-chloro-2-fluorobenzyl)oxy)pyridin-2-yl)piperidin-1-yl)methyl)-4-(methoxy-d3)-1-methyl-1H-benzo[d]imidazole-6-carboxylic acid]	–	> 5000	1.5 to 2.5	50 to 85	< 10	> 85
Cn1c(CN2CCC(c3cccc4c3O[C@@H](c3ccc(Cl)cc3F)CO4)CC2)nc2c(OCCF)cc(C(=O)O)cc21 [Compound 299, (S)-2-((4-(3-(4-chloro-2-fluorophenyl)-2,3-dihydrobenzo[b][1,4]dioxin-5-yl)piperidin-1-yl)methyl)-4-(2-fluoroethoxy)-1-methyl-1H-benzo[d]imidazole-6-carboxylic acid]	500 to 2500	< 500	1.5 to 2.5	50 to 85	< 10	> 85
